Measurements reported in ChEMBL document CHEMBL4184320, “Optimization of Selective Mitogen-Activated Protein Kinase Interacting Kinases 1 and 2 Inhibitors for the Treatment of Blast Crisis Leukemia” (J Med Chem, 2018).
In brackets after ≈: the same amount, converted by molar mass. Activity calls are given as the source filed them. The calls are words filed in the database; no cut-off is given here.

Legend:
[1] = in vitro; conditions: rat, liver microsomes
Description: Half life in rat liver microsomes at 1 uM in presence of NADPH by LC-MS/MS analysis

[2] = species on record: Homo sapiens; experiment: Antiproliferative activity against human AHH1 cells after 48 hrs by CellTiter-Glo luminescence assay; assay type: functional, cell-based
[3] = system: K562; experiment: Antitumor activity against human K562 cells overexpressing GFP-fussed full length mouse eIF4E xenografted in SCID mouse assessed as tumor growth inhibition at 100 mg/kg, po qd administered via gavage for 14 days relative to control; conditions: 336 h, read-out: TGI
[4] = system: K562; experiment: Antitumor activity against human K562 cells overexpressing GFP-fussed full length mouse eIF4E xenografted in SCID mouse assessed as increase in tumor free animal at 100 mg/kg, po administered as qd via gavage for 14 days cotreated with 2.5 mg/kg dasatinib for 1 hr post dose; assay type: functional, organism-based
[5] = system: Mus musculus; experiment: Toxicity in SCID mouse xenografted with human K562 cells overexpressing GFP-fussed full length mouse eIF4E assessed as weight loss at 25 to 100 mg/kg, po qd administered via gavage for 14 days cotreated with 2.5 mg/kg dasatinib for 1 hr post dose; assay type: organism-based; conditions: in vivo
[6] = in vitro; conditions: mouse, liver microsomes
Description: Half life in mouse liver microsomes at 1 uM in presence of NADPH by LC-MS/MS analysis

[7] = system: Mus musculus; experiment: Toxicity in NOD/SCID mouse assessed as change in weight loss up to 200 mg/kg, po administered gavage treated for 7 consecutive days measured for 7 days post last dose; assay type: organism-based; conditions: in vivo, 168 h
[8] = Permeability of the compound by PAMPA; assay type: ADME; conditions: read-out: permeability
[9] = AUClast in CD-1 mouse at 5 mg/kg, po administered via gavage as single dose by LC-MS/MS analysis; assay type: ADME, organism-based; design: dose 5 mg/kg, time 0 - last, route oral; conditions: in vivo
[10] = biological target: Cytochrome P450 2D6 (Homo sapiens, UniProt P10635); experiment: Inhibition of CYP2D6 in human liver microsomes using dextromethorphan as substrate preincubated for 5 mins followed by NADPH addition by LC-MS/MS analysis; assay type: ADME
Sequence of Cytochrome P450 2D6 (P10635 whole entry): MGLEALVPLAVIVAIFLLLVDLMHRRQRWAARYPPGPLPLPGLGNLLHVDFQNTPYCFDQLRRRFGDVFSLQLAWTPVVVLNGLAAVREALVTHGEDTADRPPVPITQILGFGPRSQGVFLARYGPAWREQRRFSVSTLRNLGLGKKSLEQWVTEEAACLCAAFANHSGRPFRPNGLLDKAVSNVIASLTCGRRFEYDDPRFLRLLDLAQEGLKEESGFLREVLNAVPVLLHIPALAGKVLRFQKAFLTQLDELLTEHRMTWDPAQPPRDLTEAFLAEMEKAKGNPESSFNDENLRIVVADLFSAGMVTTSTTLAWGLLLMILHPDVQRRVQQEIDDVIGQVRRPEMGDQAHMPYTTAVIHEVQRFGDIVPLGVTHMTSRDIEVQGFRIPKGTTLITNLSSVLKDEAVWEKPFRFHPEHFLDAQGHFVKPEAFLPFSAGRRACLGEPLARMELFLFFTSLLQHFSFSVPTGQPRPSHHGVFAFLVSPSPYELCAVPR

[11] = in vivo; conditions: CD-1, mouse, po, 5 mg/kg
Description: Tmax in CD-1 mouse at 5 mg/kg, po administered via gavage as single dose by LC-MS/MS analysis

[12] = Oral bioavailability in CD-1 mouse at 5 mg/kg administered via gavage as single dose by LC-MS/MS analysis; assay type: ADME, organism-based; conditions: in vivo
[13] = in vitro; conditions: human, liver microsomes
Description: Half life in human liver microsomes at 1 uM in presence of NADPH by LC-MS/MS analysis

[14] = biological target: Dual specificity mitogen-activated protein kinase kinase; MEK1/2 (Homo sapiens) (UniProt P36507+Q02750); experiment: Inhibition of MEK (unknown origin) at 1 uM by KINOMEscan assay relative to control; assay type: protein assay
[15] = species on record: Homo sapiens; experiment: Antiproliferative activity against human GK5 cells after 48 hrs by CellTiter-Glo luminescence assay; assay type: functional, cell-based
[16] = Clearance in CD-1 mouse at 1 mg/kg, iv administered as single dose by LC-MS/MS analysis; assay type: ADME, organism-based; conditions: in vivo
[17] = system: K562; experiment: Antitumor activity against human K562 cells overexpressing GFP-fussed full length mouse eIF4E xenografted in SCID mouse assessed as tumor growth inhibition administered as qd via gavage for 14 days cotreated with 2.5 mg/kg dasatinib for 1 hr post dose; assay type: functional, organism-based
[18] = system: P3HR-1; experiment: Antiproliferative activity against human P3HR1 cells after 48 hrs by CellTiter-Glo luminescence assay; assay type: functional, cell-based
[19] = Initial concentration in CD-1 mouse at 1 mg/kg, iv administered as single dose by LC-MS/MS analysis; assay type: ADME, organism-based; conditions: in vivo
[20] = Octanol-phosphate buffer partition coefficient, logD of compound at pH 7.4 by HPLC-UV analysis; assay type: physicochemical
[21] = Cmax in CD-1 mouse at 5 mg/kg, po administered via gavage as single dose by LC-MS/MS analysis; assay type: ADME, organism-based; design: dose 5 mg/kg, route oral; conditions: in vivo
[22] = biological target: Cytochrome P450 3A4 (Homo sapiens, UniProt P08684)
Sequence of Cytochrome P450 3A4 (P08684 whole entry): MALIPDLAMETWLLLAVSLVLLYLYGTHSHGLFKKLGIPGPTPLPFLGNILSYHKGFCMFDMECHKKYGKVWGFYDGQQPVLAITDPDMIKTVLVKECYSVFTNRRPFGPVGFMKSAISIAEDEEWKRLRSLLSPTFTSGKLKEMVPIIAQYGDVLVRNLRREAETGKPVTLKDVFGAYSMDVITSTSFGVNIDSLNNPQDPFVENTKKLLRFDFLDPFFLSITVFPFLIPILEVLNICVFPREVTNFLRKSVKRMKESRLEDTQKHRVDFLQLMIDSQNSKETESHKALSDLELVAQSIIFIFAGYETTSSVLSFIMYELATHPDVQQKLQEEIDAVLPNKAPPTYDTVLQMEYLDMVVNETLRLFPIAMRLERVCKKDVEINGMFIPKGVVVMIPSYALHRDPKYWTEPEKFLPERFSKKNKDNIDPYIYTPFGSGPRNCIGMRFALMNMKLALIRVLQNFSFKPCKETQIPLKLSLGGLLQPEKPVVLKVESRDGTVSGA
Description: Inhibition of CYP3A4 in human liver microsomes using midazolam as substrate preincubated for 5 mins followed by NADPH addition measured after 5 mins by LC-MS/MS analysis

[23] = Half life in CD-1 mouse at 5 mg/kg, po administered via gavage as single dose by LC-MS/MS analysis; assay type: ADME, organism-based; conditions: in vivo
[24] = Half life in CD-1 mouse at 1 mg/kg, iv administered as single dose by LC-MS/MS analysis; assay type: ADME, organism-based; conditions: in vivo
[25] = Protein binding in human plasma at […] after 5 hrs by LC-MS/MS analysis; assay type: ADME, cell-free; conditions: read-out: PPB (converted)
[26] = system: Mus musculus; experiment: Down regulation of phosphorylated CRKL in CB17 SCID mouse xenografted with human K562 cells overexpressing GFP-fussed full length mouse eIF4E at 100 mg/kg, po administered as single dose up to 8 hrs cotreated with 2.5 mg/kg dasatinib by Western blot; assay type: functional, organism-based
[27] = system: DOHH-2; experiment: Antiproliferative activity against human DOHH2 cells after 48 hrs by CellTiter-Glo luminescence assay; assay type: functional, cell-based
[28] = Apparent permeability of the compound across apical side to basolateral side in human Caco2 cells by LC-MS/MS analysis; assay type: ADME, cell-based; conditions: Caco-2
[29] = Thermodynamic solubility of the compound at pH 4 to 7.4 pION buffer after 18 hrs by UV spectrophotometric analysis; assay type: physicochemical; conditions: read-out: Therm_solubility
[30] = system: Mus musculus; experiment: Toxicity in NOD/SCID mouse assessed as clinical adverse effect up to 200 mg/kg, po administered gavage treated for 7 consecutive days measured for 7 days post last dose; assay type: organism-based; conditions: in vivo, 168 h
[31] = AUClast in CD-1 mouse at 1 mg/kg, iv administered as single dose by LC-MS/MS analysis; assay type: ADME, organism-based; design: dose 1 mg/kg, time 0 - last, route intravenous; conditions: in vivo
[32] = system: Mus musculus; experiment: Down regulation of phosphorylated eIF4E in CB17 SCID mouse xenografted with human K562 cells overexpressing GFP-fussed full length mouse eIF4E at 100 mg/kg, po administered as single dose up to 8 hrs cotreated with 2.5 mg/kg dasatinib by Western blot; assay type: functional, organism-based
[33] = Protein binding in mouse plasma at […] after 5 hrs by LC-MS/MS analysis; assay type: ADME, cell-free; conditions: read-out: PPB (converted)
[34] = Half life in dog liver microsomes at 1 uM in presence of NADPH by LC-MS/MS analysis; assay type: ADME, Canis lupus familiaris, microsome
[35] = system: K562; experiment: Antitumor activity against human K562 cells overexpressing GFP-fussed full length mouse eIF4E xenografted in SCID mouse assessed as tumor growth inhibition at 2.5 mg/kg, po qd administered via gavage for 5 days on 2 days off per cycle for 2 cycles relative to control; assay type: functional; conditions: read-out: TGI
[36] = biological target: Phosphorylase b kinase gamma catalytic chain, liver/testis isoform (Homo sapiens) (UniProt P15735); experiment: Inhibition of wild-type human partial length PHKG2 (M1 to W300 residues) expressed in bacterial expression system at 1 uM by Kinomescan method relative to control
Sequence of Phosphorylase b kinase gamma catalytic chain, liver/testis isoform (Homo sapiens) (P15735 whole entry, the tested form may be a part, canonical isoform): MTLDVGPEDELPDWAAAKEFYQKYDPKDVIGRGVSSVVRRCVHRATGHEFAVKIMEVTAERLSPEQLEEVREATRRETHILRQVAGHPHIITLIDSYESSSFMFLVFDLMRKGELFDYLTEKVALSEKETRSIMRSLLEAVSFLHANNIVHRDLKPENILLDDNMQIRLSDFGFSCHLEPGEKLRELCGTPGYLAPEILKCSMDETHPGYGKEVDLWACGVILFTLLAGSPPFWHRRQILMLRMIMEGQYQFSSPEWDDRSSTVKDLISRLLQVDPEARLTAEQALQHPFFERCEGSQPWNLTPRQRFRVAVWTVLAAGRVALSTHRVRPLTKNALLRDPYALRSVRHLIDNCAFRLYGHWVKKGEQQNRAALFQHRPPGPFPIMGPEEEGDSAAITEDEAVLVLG

[37] = biological target: MAP kinase-interacting serine/threonine-protein kinase 1 (Homo sapiens, UniProt Q9BUB5)
Description: Inhibition of GST-tagged MNK1 (37 to 341 residues) (unknown origin) expressed in Escherichia coli BL21(DE3) using JH3 peptide as substrate preincubated for 10 mins followed by substrate and ATP addition measured after 60 mins

[38] = biological target: Platelet-derived growth factor receptor alpha (Homo sapiens) (UniProt P16234); experiment: Inhibition of wild-type human partial length PDGFRA (V575 to D1002 residues) expressed in mammalian expression system by Kinomescan method
Sequence of Platelet-derived growth factor receptor alpha (Homo sapiens) (P16234 whole entry, the tested form may be a part): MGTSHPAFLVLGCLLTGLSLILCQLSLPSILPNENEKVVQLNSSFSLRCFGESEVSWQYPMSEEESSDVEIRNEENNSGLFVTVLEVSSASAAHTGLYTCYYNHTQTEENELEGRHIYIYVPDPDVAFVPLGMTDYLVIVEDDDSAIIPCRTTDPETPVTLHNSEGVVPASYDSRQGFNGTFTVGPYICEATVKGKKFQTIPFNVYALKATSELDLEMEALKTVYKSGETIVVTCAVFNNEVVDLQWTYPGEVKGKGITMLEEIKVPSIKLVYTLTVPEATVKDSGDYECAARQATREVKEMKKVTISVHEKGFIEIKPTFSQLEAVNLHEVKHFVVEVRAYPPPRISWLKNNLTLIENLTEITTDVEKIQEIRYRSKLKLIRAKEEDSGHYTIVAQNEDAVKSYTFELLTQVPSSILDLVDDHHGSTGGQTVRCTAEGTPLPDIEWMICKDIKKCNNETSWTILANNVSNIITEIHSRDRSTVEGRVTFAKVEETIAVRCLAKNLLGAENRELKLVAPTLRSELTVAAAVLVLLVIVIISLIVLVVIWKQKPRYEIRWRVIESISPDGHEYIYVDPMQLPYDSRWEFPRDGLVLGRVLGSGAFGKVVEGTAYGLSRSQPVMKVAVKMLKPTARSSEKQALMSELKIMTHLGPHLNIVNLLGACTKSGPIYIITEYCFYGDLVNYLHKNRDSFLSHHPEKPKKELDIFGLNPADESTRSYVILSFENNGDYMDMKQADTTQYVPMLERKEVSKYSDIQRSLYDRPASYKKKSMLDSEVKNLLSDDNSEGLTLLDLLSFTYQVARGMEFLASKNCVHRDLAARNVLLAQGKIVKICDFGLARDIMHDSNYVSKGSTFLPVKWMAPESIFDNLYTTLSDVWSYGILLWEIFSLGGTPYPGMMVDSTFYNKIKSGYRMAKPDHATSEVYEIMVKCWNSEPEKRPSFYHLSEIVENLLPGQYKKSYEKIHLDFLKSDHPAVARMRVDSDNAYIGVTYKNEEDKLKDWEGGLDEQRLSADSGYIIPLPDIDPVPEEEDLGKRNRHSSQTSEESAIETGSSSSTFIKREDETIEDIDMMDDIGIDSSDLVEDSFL

[39] = biological target: Serine/threonine-protein kinase 17A (Homo sapiens) (UniProt Q9UEE5); experiment: Inhibition of wild-type human partial length DRAK1 (R32 to E363 residues) expressed in bacterial expression system at 1 uM by Kinomescan method relative to control
[40] = biological target: SRSF protein kinase 3 (Homo sapiens) (UniProt Q9UPE1); experiment: Inhibition of human SRPK3 (P41 to P567 residues) expressed in bacterial expression system at 1 uM by KINOMEscan assay relative to control
Sequence of SRSF protein kinase 3 (Homo sapiens) (Q9UPE1 whole entry, the tested form may be a part): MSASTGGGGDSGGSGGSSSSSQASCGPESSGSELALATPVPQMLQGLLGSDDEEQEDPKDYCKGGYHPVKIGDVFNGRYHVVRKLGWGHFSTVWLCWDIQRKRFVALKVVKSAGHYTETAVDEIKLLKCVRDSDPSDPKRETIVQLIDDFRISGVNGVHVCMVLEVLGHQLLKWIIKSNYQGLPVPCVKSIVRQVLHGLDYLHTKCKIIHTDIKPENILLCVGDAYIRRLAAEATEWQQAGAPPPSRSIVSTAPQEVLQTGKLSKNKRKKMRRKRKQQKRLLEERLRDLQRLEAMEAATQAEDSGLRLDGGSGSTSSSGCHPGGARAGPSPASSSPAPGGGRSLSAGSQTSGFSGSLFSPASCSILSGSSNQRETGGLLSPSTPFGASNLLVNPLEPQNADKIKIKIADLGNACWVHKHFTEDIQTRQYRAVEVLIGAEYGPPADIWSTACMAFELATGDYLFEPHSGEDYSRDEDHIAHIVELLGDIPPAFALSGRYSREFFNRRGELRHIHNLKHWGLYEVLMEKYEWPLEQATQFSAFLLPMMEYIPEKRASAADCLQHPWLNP

[41] = biological target: MAP kinase-interacting serine/threonine-protein kinase 1/2 (Homo sapiens, UniProt Q9HBH9+Q9BUB5); experiment: Inhibition of MNK1/2 in human HeLa cells assessed as decrease in eIF4E phosphorylation at Ser209 after 2 hrs by AlphaScreen assay; assay type: cell-based
[42] = biological target: Platelet-derived growth factor receptor beta (Homo sapiens) (UniProt P09619); experiment: Inhibition of wild-type human partial length PDGFRB (V582 to Y1009 residues) expressed in bacterial expression system at 1 uM by Kinomescan method relative to control
[43] = biological target: Mast/stem cell growth factor receptor Kit (Homo sapiens) (UniProt P10721); experiment: Inhibition of wild-type human partial length KIT (I571 to D952 residues) expressed in bacterial expression system at 1 uM by Kinomescan method relative to control
Sequence of Mast/stem cell growth factor receptor Kit (Homo sapiens) (P10721 whole entry, the tested form may be a part): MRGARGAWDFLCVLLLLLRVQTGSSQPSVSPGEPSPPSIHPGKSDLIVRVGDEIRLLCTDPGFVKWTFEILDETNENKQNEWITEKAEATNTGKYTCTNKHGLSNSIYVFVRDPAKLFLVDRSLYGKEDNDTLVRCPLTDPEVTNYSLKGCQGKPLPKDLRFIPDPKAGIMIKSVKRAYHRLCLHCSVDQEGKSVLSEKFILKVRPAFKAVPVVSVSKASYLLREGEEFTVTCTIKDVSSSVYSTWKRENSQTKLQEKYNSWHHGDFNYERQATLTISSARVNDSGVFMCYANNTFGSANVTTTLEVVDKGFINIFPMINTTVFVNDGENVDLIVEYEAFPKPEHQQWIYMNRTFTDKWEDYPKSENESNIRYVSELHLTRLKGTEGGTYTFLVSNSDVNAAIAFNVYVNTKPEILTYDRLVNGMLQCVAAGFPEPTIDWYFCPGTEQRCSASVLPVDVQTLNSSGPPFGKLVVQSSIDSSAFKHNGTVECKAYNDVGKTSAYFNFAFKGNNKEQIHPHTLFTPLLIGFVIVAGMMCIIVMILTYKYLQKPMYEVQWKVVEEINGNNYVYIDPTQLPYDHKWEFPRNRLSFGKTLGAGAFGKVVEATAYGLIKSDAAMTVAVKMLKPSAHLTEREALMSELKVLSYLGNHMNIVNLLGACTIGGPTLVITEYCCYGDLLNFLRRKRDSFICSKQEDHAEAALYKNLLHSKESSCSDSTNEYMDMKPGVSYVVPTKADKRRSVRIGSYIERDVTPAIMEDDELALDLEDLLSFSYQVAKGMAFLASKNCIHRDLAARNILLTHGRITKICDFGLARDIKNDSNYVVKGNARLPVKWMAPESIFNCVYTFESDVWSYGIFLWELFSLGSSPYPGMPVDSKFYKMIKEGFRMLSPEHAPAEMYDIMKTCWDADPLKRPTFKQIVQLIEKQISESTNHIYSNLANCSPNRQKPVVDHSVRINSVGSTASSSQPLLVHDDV

[44] = biological target: Receptor-type tyrosine-protein kinase FLT3 (Homo sapiens) (UniProt P36888); experiment: Inhibition of wild-type human partial length FLT3 (V592 to Y969 residues) expressed in bacterial expression system at 1 uM by Kinomescan method relative to control
Sequence of Receptor-type tyrosine-protein kinase FLT3 (Homo sapiens) (P36888 whole entry, the tested form may be a part): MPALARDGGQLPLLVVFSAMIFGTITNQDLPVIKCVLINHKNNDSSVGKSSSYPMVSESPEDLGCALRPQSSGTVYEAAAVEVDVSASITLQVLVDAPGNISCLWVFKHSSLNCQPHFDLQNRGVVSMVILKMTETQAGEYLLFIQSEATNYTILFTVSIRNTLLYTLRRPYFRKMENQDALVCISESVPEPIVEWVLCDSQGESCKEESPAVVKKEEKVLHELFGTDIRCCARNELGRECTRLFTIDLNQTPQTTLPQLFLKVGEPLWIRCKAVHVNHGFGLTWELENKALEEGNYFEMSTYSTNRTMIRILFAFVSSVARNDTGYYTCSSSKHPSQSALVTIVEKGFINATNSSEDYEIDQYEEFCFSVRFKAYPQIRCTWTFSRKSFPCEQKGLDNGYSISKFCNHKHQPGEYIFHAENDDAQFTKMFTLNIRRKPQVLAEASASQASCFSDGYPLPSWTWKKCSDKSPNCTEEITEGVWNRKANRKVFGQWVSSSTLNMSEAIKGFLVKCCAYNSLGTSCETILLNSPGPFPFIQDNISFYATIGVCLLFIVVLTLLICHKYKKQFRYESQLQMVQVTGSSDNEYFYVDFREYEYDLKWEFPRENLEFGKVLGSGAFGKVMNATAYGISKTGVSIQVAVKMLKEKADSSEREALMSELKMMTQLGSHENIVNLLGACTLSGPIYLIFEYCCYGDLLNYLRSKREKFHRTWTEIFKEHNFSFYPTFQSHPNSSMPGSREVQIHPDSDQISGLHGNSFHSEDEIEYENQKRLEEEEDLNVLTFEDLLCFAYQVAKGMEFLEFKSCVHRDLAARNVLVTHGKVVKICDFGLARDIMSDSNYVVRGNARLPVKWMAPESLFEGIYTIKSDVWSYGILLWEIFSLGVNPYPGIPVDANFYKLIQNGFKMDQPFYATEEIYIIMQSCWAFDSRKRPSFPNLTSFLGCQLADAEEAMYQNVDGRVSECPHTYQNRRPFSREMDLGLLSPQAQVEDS

[45] = biological target: MAP kinase-interacting serine/threonine-protein kinase 2 (Homo sapiens, UniProt Q9HBH9)
Description: Inhibition of GST-tagged MNK2 (72 to 385 residues) (unknown origin) expressed in Escherichia coli BL21(DE3) using JH3 peptide as substrate preincubated for 10 mins followed by substrate and ATP addition measured after 60 mins

[46] = biological target: Receptor-type tyrosine-protein kinase FLT3 (Homo sapiens) (UniProt P36888); experiment: Inhibition of wild-type human partial length FLT3 (V592 to Y969 residues) expressed in bacterial expression system by Kinomescan method
[47] = biological target: Platelet-derived growth factor receptor alpha (Homo sapiens) (UniProt P16234); experiment: Inhibition of wild-type human partial length PDGFRA (V575 to D1002 residues) expressed in mammalian expression system at 1 uM by Kinomescan method relative to control
[48] = Oral bioavailability in mouse at 50 mg/kg; assay type: ADME, organism-based; conditions: in vivo

Compound | half-life at 1 µM [1] [h] | Activity [2] | half-life at 1 µM [6] [h] | Papp [8] [×10⁻⁶ cm/s] | AUC(0-t) [9] [ng·h/mL] | IC50 [10] [µM] | bioavailability [12] [%] | half-life at 1 µM [13] [h] | Activity [15] | clearance [16] [mL/min/kg] | Activity [18] | C0 [19] [ng/mL] | logD [20] | Cmax [21] [ng/mL] | IC50 [22] [µM] | half-life [23] [h] | fraction unbound at 5 h [25] | Papp A→B [28] [×10⁻⁶ cm/s] | solubility thermodynamic at 18 h [29] [µg/mL] | fraction unbound at 5 h [33] | further results
N#Cc1ccc(-c2cnc3ccc(-c4ccc(C(=O)N5CCOCC5)cc4)cn23)cc1 [TINODASERTIB] | > 1 | Active | 0.933 | 74.4 | 5480 | > 20 | 64 | 0.8 | Active | 9.33 | Active | 2380 | 2.61 | 2480 | > 20 | 1.77 | 0.003 | 30.5 | 55.4 (≈ 136 µM) | 0.158 | inhibition in vivo at 100 mg/kg [3]: 23%; Activity [4]: Active; Activity [5]: Non-Toxic; Activity [7]: Non-Toxic; Tmax [11]: 0.5 h; inhibition [14]: > 65%; TGI [17]: Dose-dependent effect; half-life [24]: 1.7 h; Activity [26]: Active; Activity [27]: Active; Activity [30]: Non-Toxic; AUC(0-t) [31]: 1760 ng·h/mL; Activity [32]: Active; half-life at 1 µM [34]: > 1 h
Cc1nc(Nc2ncc(C(=O)Nc3c(C)cccc3Cl)s2)cc(N2CCN(CCO)CC2)n1 [DASATINIB] |  |  |  |  |  |  |  |  |  |  |  |  |  |  |  |  |  |  |  |  | inhibition in vivo at 2.5 mg/kg [35]: 88%
N#Cc1ccc(-c2cnc3ccc(-c4ccc(C(=O)N5CCOCC5)cc4)nn23)cc1 | > 1 | Active | > 1 | 30 | 24100 | > 20 | 79 | 0.883 | Active | 2.67 | Active | 2940 | 2.1 | 4400 | > 20 | 2.14 | 0.001 | 38.5 | 1.8 (≈ 4.4 µM) | 0.055 | inhibition [36]: > 65%; IC50 [37]: 0.023 µM; INH [38]: 0.25 µM; inhibition [39]: > 65%; inhibition [40]: > 65%; half-life [24]: 2.32 h; Activity [27]: Active; IC50 [41]: 0.421 µM; AUC(0-t) [31]: 6120 ng·h/mL; inhibition [42]: > 65%; inhibition [43]: > 65%; inhibition [44]: > 65%; IC50 [45]: 0.041 µM; INH [46]: 0.88 µM; half-life at 1 µM [34]: > 1 h; inhibition [47]: > 65%
CN1CCN(C(=O)c2ccc(-c3cn4c(-c5ccc(C#N)cc5)cnc4cn3)cc2)CC1 |  |  | 0.617 | 102 |  | > 20 |  | 0.683 |  |  |  |  | 1.67 |  | > 20 |  | 0.016 | 6.87 | > 125 | 0.129 | bioavailability [48]: 48%
